Data reported in patent publication US10266497B2 (ABIDE THERAPEUTICS, INC., priority 2017, dated 2019).

What was measured:
FAAH [1] = target: T1, FAAH (Mus musculus, UniProt O08914); test: In vitro competitive activity-based protein profiling, FAAH, mouse; details: read-out: FAAH % inh. 1 μM (mouse)
T1 sequence (O08914 1-579): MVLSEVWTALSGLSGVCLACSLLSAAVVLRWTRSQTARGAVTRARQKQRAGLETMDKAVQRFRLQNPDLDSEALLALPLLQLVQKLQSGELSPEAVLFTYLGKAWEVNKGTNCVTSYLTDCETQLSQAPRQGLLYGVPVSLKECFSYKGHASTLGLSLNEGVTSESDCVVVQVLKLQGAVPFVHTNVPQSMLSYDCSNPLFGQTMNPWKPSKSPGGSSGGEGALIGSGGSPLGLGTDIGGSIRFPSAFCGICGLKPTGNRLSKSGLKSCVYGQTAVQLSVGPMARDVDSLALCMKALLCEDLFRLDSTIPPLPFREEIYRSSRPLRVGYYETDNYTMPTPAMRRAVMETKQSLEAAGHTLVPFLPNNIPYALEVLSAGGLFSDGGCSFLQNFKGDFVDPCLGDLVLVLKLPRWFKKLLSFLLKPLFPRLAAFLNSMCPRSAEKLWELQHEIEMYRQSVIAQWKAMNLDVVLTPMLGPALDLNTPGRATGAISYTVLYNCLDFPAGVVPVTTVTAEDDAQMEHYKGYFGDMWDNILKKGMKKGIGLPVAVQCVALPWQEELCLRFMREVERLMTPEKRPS
Protocol: Biological Evaluation In Vitro Competitive Activity-Based Protein Profiling.
Proteomes (mouse brain membrane fraction for mouse assays; human prefrontal cortex membrane fractions for human assays) (50 mL, 1.0 mg/mL total protein concentration) were preincubated with varying concentrations of inhibitors at 37° C. After 30 min, FP-Rh (1.0 mL, 50 mM in DMSO) was added and the mixture was incubated for another 30 min at 37° C. Reactions were quenched with SDS loading buffer (15 μL—4λ) and run on SDS-PAGE.

MAGL [2] = target: T2, MAGL (Homo sapiens, UniProt Q99685); test: In vitro competitive activity-based protein profiling, MAGL, human; details: read-out: MAGL % inh. 1 μM (human)
T2 sequence (Q99685 1-303): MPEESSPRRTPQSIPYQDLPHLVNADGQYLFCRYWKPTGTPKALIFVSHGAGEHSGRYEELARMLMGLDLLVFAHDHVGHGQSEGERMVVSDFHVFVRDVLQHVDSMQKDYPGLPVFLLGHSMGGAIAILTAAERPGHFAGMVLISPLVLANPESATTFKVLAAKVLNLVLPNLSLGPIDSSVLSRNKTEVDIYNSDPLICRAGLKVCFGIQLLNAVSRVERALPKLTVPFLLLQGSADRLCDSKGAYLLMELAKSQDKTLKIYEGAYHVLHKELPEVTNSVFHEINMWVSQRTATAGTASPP

FAAH [3] = target: T1, FAAH; test: Mouse brain proteomes from inhibitor treated mice (oral gavage, sacrificed 4 h after administration), FAAH; assay type: in vivo; parameters: mouse brain membrane fraction for mouse assays; from tissue; host or cells: mouse brain (membrane fraction in vitro; brain proteomes of treated C57Bl/6J mice in vivo); details: 5 mg/kg oral gavage, brain proteome 4 h after administration, read-out: FAAH % inh. 5 mg/kg (mouse)
FAAH [4] = target: T3, FAAH (Homo sapiens, UniProt O00519); test: In vitro competitive activity-based protein profiling, FAAH, human; details: for inhibition at 1 µM: read-out: FAAH % inh. 1 μM (human)
T3 sequence (O00519 1-579): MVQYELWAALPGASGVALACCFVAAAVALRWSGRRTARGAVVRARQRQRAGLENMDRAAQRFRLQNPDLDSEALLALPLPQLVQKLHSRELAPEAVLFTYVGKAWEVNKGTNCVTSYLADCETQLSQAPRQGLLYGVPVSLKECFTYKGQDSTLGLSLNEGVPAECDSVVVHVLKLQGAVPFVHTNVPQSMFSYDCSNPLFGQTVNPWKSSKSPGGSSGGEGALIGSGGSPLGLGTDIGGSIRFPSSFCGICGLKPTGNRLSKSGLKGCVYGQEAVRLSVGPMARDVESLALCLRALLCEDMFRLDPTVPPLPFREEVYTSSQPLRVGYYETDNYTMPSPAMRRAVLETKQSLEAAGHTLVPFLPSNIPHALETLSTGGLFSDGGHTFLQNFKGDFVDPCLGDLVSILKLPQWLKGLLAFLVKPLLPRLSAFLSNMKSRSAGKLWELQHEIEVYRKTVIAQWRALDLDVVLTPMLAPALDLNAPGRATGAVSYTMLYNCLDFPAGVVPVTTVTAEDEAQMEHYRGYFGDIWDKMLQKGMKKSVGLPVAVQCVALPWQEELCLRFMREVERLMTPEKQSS

MAGL [5] = target: T4, MAGL (Mus musculus, UniProt O35678); test: In vitro competitive activity-based protein profiling, MAGL, mouse; details: read-out: MAGL % inh. 1 μM (mouse)
T4 sequence (O35678 1-303): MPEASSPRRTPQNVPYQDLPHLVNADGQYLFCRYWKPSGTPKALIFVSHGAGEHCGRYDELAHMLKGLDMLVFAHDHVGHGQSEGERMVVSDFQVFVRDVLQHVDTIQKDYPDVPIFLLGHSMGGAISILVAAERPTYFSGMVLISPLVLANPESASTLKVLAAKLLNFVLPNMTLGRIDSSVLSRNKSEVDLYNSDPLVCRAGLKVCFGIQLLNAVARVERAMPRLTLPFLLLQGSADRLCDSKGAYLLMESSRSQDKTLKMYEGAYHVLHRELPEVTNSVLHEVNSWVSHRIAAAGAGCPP

MAGL [6] = target: T4, MAGL; test: Mouse brain proteomes from inhibitor treated mice (oral gavage, sacrificed 4 h after administration); assay type: in vivo; parameters: mouse brain membrane fraction for mouse assays; from tissue; host or cells: mouse brain (membrane fraction in vitro; brain proteomes of treated C57Bl/6J mice in vivo); details: 5 mg/kg oral gavage, brain proteome 4 h after administration, read-out: MAGL % inh. 5 mg/kg (mouse)

SMILES	inhibition at 1 µM (FAAH [1]) [%]	inhibition at 1 µM (MAGL [2]) [%]	inhibition at 5 mg/kg (FAAH [3]) [%]	inhibition at 1 µM (FAAH [4]) [%]	inhibition at 1 µM (MAGL [5]) [%]	inhibition at 5 mg/kg (MAGL [6]) [%]	IC50 (FAAH [4]) [nM]
O=C(O)c1ccn(C(=O)N2C[C@H]3C[C@H](OCc4cccc(Oc5ccc(Cl)cc5)c4)C[C@H]3C2)n1 [Example 158, 1-(trans-5-((3-(4-chlorophenoxy)benzyl)oxy)octa-hydrocyclopenta[c]pyrrole-2-carbonyl)-1H-pyrazole-3-carboxylic acid]	> 75	> 75	0 to 25	> 75	> 75	0 to 25	–
O=C(O)c1nn(C(=O)N2CC3CN(Cc4ccc(N5CCCC5)cc4C(F)(F)F)CC3C2)cc1Cl (stereo not drawn) [Example 140, 4-chloro-1-(5-(4-(pyrrolidin-1-yl)-2-(trifluoromethyl)benzyl)octahydro-pyrrolo[3,4-c]pyrrole-2-carbonyl)-1H-pyrazole-3-carboxylic acid]	50 to 75	> 75	0 to 25	50 to 75	> 75	0 to 25	100 to 1000
CC(=O)NC1CCN(c2cc(C(F)(F)F)ccc2CN2CCN(C(=O)n3ccc(C(=O)O)n3)CC2)CC1 [Example 119, 1-(4-(2-(4-acetamidopiperidin-1-yl)-4-(trifluoromethyl)benzyl)piperazine-1-carbonyl)-1H-pyrazole-3-carboxylic acid]	0 to 25	> 75	0 to 25	0 to 25	> 75	0 to 25	–
O=C(O)c1ccn(C(=O)N2CCC3(CCCN3Cc3cc(Cl)cc(C(F)(F)F)c3)CC2)n1 [Example 86, 1-(1-(3-chloro-5-(trifluoromethyl)benzyl)-1,8-diazaspiro[4.5]decane-8-carbonyl)-1H-pyrazole-3-carboxylic acid]	0 to 25	> 75	0 to 25	0 to 25	> 75	0 to 25	–
O=C(O)c1ccn(C(=O)N2CCC3(CCCN3Cc3ccc(C(F)(F)F)cc3Cl)CC2)n1 [Example 76, 1-(1-(2-chloro-4-(trifluoromethyl)benzyl)-1,8-diazaspiro[4.5]decane-8-carbonyl)-1H-pyrazole-3-carboxylic acid]	0 to 25	> 75	0 to 25	0 to 25	> 75	0 to 25	–
O=C(O)c1ccn(C(=O)N2CCN(Cc3ccc(Cl)cc3N3CC4COCC4C3)CC2)n1 (stereo not drawn) [Example 111, 1-(4-(4-chloro-2-(tetrahydro-1H-furo[3,4-c]pyrrol-5(3H)-yl)benzyl)piperazine-1-carbonyl)-1H-pyrazole-3-carboxylic acid]	0 to 25	> 75	0 to 25	0 to 25	> 75	0 to 25	–

The remaining lines, values ahead:

inhibition at 1 µM (FAAH [1]) [%]	inhibition at 1 µM (MAGL [2]) [%]	inhibition at 5 mg/kg (FAAH [3]) [%]	inhibition at 1 µM (FAAH [4]) [%]	inhibition at 1 µM (MAGL [5]) [%]	inhibition at 5 mg/kg (MAGL [6]) [%]	IC50 (FAAH [4]) [nM]	SMILES
0 to 25	> 75	0 to 25	0 to 25	> 75	0 to 25	–	NC(=O)C1CCN(c2cc(C(F)(F)F)ccc2CN2CCN(C(=O)n3ccc(C(=O)O)n3)CC2)CC1 [Example 113, 1-(4-(2-(4-carbamoylpiperidin-1-yl)-4-(trifluoromethyl)benzyl)piperazine-1-carbonyl)-1H-pyrazole-3-carboxylic acid]
0 to 25	> 75	0 to 25	0 to 25	> 75	0 to 25	–	O=C(O)c1ccn(C(=O)N2CCN(Cc3ccc(C(F)(F)F)cc3N3CCN4CCC[C@@H]4C3)CC2)n1 [Example 48, (R)-1-(4-(2-(hexahydropyrrolo [1,2-a]pyrazin-2(1H)-yl)-4-(trifluoromethyl)benzyl)piperazine-1-carbonyl)-1H-pyrazole-3-carboxylic acid]
0 to 25	> 75	0 to 25	0 to 25	> 75	0 to 25	–	O=C(O)c1ccn(C(=O)N2CCN(Cc3ccc(C(F)(F)F)cc3Cl)CC2)n1 [Example 91, 1-(4-(2-chloro-4-(trifluoromethyl)benzyl)piperazine-1-carbonyl)-1H-pyrazole-3-carboxylic acid]
0 to 25	> 75	0 to 25	0 to 25	> 75	0 to 25	–	O=C(O)c1ccn(C(=O)N2CCN(Cc3ccc(C(F)(F)F)c(-c4nccs4)c3)CC2)n1 [Example 8, 1-(4-(3-(Thiazol-2-yl)-4-(trifluoromethyl)benzyl)piperazine-1-carbonyl)-1H-pyrazole-3-carboxylic Acid]
> 75	> 75	0 to 25	50 to 75	> 75	0 to 25	1000 to 10000	O=C(O)c1ccn(C(=O)N2CCC3(CCN(Cc4cc(Cl)ccc4C(F)(F)F)C3)CC2)n1 [Example 43, 1-(2-(5-chloro-2-(trifluoromethyl)benzyl)-2,8-diazaspiro[4.5]decane-8-carbonyl)-1H-pyrazole-3-carboxylic acid]
0 to 25	> 75	0 to 25	0 to 25	> 75	0 to 25	1000 to 10000	O=C(O)c1ccn(C(=O)N2CCN(Cc3ccc(C(F)(F)F)cc3N3CCCC3)CC2)n1 [Example 83, 1-(4-(2-(pyrrolidin-1-yl)-4-(trifluoromethyl)benzyl)piperazine-1-carbonyl)-1H-pyrazole-3-carboxylic acid]
0 to 25	> 75	0 to 25	0 to 25	> 75	0 to 25	–	COC1CCN(c2cc(C(F)(F)F)ccc2CN2CCN(C(=O)n3ccc(C(=O)O)n3)CC2)CC1 [Example 12, 1-(4-(2-(4-Methoxypiperidin-1-yl)-4-(trifluoromethyl)benzyl)piperazine-1-carbonyl)-1H-pyrazole-3-carboxylic Acid]
